Reference: patent US20190388377A1, “COMPOSITIONS AND METHODS FOR THE TREATMENT OF LIVER DISEASES AND DISORDERS” (AXCELLA HEALTH INC., priority 2018, published 2019)

Tested on: TNFa
Experiment: TNFa secretion by ELISA, LPS-treated primary human M1 macrophages, Example 5
Format: cell-based
Protocol: Primary human PMBC derived macrophages were seeded on day 0 at 3.0E4 cells per well in 96-well microplates (ThermoFisher) in Dulbecco's Modified Eagle Medium (DMEM) (Gibco) supplemented with penicillin-streptomycin (Hyclone) and 10% heat inactivated fetal bovine serum (HI-FBS) (Atlanta Bio) and incubated overnight at 37° C., 5% CO2. On day 1, cells were washed once with 150 uL per well DPBS (Gibco) and treated with 75 uL of: • a. Amino acid free DMEM (US Biologicals) containing a defined custom amino acid concentration based on the mean physiological concentrations in blood based on values published in the Human Metabolome Database (HMDB), with 6 mM glucose, 1 mM sodium pyruvate, 10 mM HEPES, 0.2% primocin (InVivoGen); or • b. The same media described above with supplemental amino acid and amino acid combination treatments at various concentrations. […]
On day 3, the supernatant was collected and immediately frozen in −80° C. freezer. Cells were washed once with 150 uL DPBS and viability was assessed using the WST-8 Cell Proliferation Cytotoxicity Assay (Dojindo). […] Protein levels in supernatant samples were analyzed by ELISA for IL-6 and TNFa using commercially available kits (R&D Systems) according to manufacturer-supplied protocols.

`CC(=O)N[C@@H](CS)C(=O)O` [Nac, N-acetylcysteine] was tested, and the “LPS-stimulated TNFa secretion (in words)” value was “decreased LPS-stimulated IL-6 and TNFa secretion”.
